The source of these data is EP0137294A2, “Gonadoliberin and gonadoliberin agonists in the treatment of metabolic diseases due to too small a parathormone level” (HOECHST AKTIENGESELLSCHAFT, priority 1983, dated 1985).

Entries after “also recorded” stand apart in the source; their conditions may differ.

Data set [1] in a line: Intranasal absorption of Gonadoliberin. The following applies: intranasal dose of 100 mcg, calculated from the Resorptionsrate. It counts as in vivo, Mensch.
Another data set deals with Parathormon. As to the kind of experiment: Plasma levels of parathormone and Ca2+ in Ca2+-infused anaesthetised rats after i.v. injection. It counts as in vivo, Wistarratten. The following applies: for Stimulierung des PTH: Ratten. The text has this:
(§1) In Ratten wurde durch eine Ca^2+-Gluconat-Infusion der Plasma-Ca^2+-Spiegel erhöht. Durch diese Infusion wird der PTH-Spiegel suppremiert (The New England J. Med. 307, 1982, S. 226 - 228). Eine Bolusinjektion der Gonadoliberinagonisten erhöhte jedoch signifikant den PTH-Spiegel gegenüber den Kontrollen und potenzierte das Plasma-Ca^2+. Das 30 Minuten nach der Injektion der Gonadoliberinagonisten erhöhte PTH bewirkte nach 60 Minuten einen signifikanten Serum-Ca^2+-Anstieg. Daß diese Beeinflußung des Plasma-Ca^2+-Spiegels durch endogenes PTH oder PTH selbst einen Einfluß auf den Blutdruck hat, wurde an einer Frau mit zu hohem Blutdruck überprüft. Nach einmaliger intranasaler Gabe von 100 mcg Gonadoliberin, was bei einer Resorptionsrate von 2 - 5 % also nur etwa 2 - 5 mcg resorbierten Gonadoliberins entspricht, konnte der erhöhte Blutdruck 8 Stunden lang stark gesenkt werden.
Zwei Gruppen von je 31 Wistarratten wurden mit Pentobarbital (45 mg/kg i.p.) narkotisiert. Man entnahm von allen Tieren eine Blutprobe (Ausgangswert). […] Nach 30, 60, 90, 120 und 180 Minuten wurde ein Teil der Tiere getötet und entblutet. Das Blutserum wurde auf Ca^2+ und Parathormon untersucht.
In beiden-Figuren ist bei den einzelnen Meßpunkten die Anzahl n der Messungen sowie die Standardabweichung des Meßwertes (graphisch) angegeben.

Data set [2] is described as follows: Blood pressure lowering in a hypertensive person after intranasal dosing. The class given is in vivo, Mensch. As to conditions: for systolischer Blutdruck: hypertensive person, 100 µg intranasal, baseline etwa 150 mm Hg.
Text: as §1
Eine hypertensive, 48 Jahre alte Frau, deren Bluthochdruck mit ß-Blockern behandelt wird, setzte ihre Be-.handlung am Versuchstag aus. Versuchsbeginn: 17.00 Uhr.
Der systolische Blutdruck von etwa 150 mm Hg sank nach intranasaler Gabe von 100 µg Gonadoliberin innerhalb von 30 Minuten auf etwa 125 mm Hg, blieb 90 Minuten bei 125 mm Hg und stieg dann für die nächsten 4 Stunden auf 130 mm Hg. Nach einer 8-stündigen Bettruhe, während der die Versuchsperson ausgezeichnet schlief, war der Blutdruck auf etwa 137 mm Hg gestiegen.

The nature of data set [3]: Treatment of muscle pain (McArdle-Erkrankung) in a person, intranasal dosing. The class given is in vivo, Mensch. The text has this:
[…] mit starken Muskelschmerzen am Oberarm (McArdle-Erkrankung) gab man 100 mcg Gonadoliberin intra- nasal. Die starken Dauerschmerzen verschwanden nach etwa 15 Minuten. Am Anfang der Behandlung wurde mehrmals täglich (3 mal), später 2 mal und dann nur noch einmal täglich appliziert um einer Tachyphylaxie vorzubeugen. […] Der anfangs sehr schwache Blutdruck der Patientin von 90/60 wurde interessanterweise nicht weiter gesenkt, sondern leicht erhöht, so daß er sich während der Therapie auf 110/65 einpendelte. Diese kleinen Gonadoliberindosen wirken also nicht generell blutdrucksenkend ', sondern können auch bei niedrigem Blutdruck blutdruckerhöhend wirken.
Eine Frau, 46 Jahre alt, hatte starke Schmerzen im Oberarm. Der Arm konnte nicht vom Körper weg bewegt werden. Nach einer intranasalen Applikation von 100 µg Gonadoliberin war der Dauerschmerz in Ruhehaltung verschwunden. Der sehr schwache Blutdruck von 90/60 stieg während der Behandlung mit Gonadoliberin auf 110/65. Am ersten Tag wurde insgesamt 3 mal, am zweiten und dritten Tag 2 mal und am vierten und folgenden Tagen nur noch einmal täglich am Morgen therapiert. Im Lauf der Therapie wurden auch die Bewegungsschmerzen weniger und der Arm konnte wieder normal bewegt werden.

For data set [4] the following is noted: je nach Test; literature (Vitamins and Hormons 38, 1980; J. Med. Chem. 25, 1982); cited from earlier work.
The next data set concerns Plasma-Glucose. As to conditions: Kaninchen, Glucosebolus 500 mg/kg i.v.; 5 ng/kg i.v.; after 70 - 90 Minuten; Verum-Gruppe vs Placebo-Gruppe.
Where [5] appears, read: person with high blood pressure, single intranasal dose of 100 mcg.

Description for Plasma-Glucose: Der Einfluß auf den Blutzucker. wurde zunächst an Kaninchen überprüft. Kaninchen wurden zur Hemmung des endogen Glucagons mit einem Glucosebolus versehen.
Je 3 wachen Kaninchen gab man einen Glucosebolus (500 mg/ kg i.v.). […] Nach 10, 30, 40, 50, 60, 70, 80 und 90 Minuten wurde Blut abgenommen und daraus die Blutglucose bestimmt.
Bei den einzelnen Meßpunkten ist jeweils graphisch die Standardabweichung des Meßwertes angegeben (n ist jeweils 3).

Take `CC(C)C[C@H](NC(=O)CNC(=O)[C@H](Cc1ccc(O)cc1)NC(=O)[C@H](CO)NC(=O)[C@H](Cc1c[nH]c2ccccc12)NC(=O)[C@H](Cc1cnc[nH]1)NC(=O)[C@@H]1CCC(=O)N1)C(=O)N[C@@H](CCCNC(=N)N)C(=O)N1CCC[C@H]1C(=O)NCC(N)=O` [Gonadoliberin]: in data set [1], the “resorbiertes Gonadoliberin” value is 2 to 5 µg. The “Stimulierung des PTH” value in the data set on Parathormon (dose 50 ng/kg) is listed as “stimulieren”. Further, the “systolischer Blutdruck” value in data set [2] (after a subsequent 8-hour bed rest) was roughly 137 mm Hg; in data set [2] (maintained for 90 Minuten after the fall), 125 mm Hg; in data set [2] (the following 4 Stunden), 130 mm Hg; in data set [2] (within 30 Minuten) it was roughly 125 mm Hg. The “duration of blood pressure lowering” value in data set [2] (setting [5]) turned out to be 8 Stunden. The “erhöhter Blutdruck” value in data set [2] (setting [5]) is recorded as “stark gesenkt”. Further, the “time until the starke Dauerschmerzen disappeared” value in data set [3] (person with muscle pain in the upper arm (McArdle-Erkrankung), 100 mcg intranasal) was roughly 15 Minuten. The “Bewegungsschmerzen / movement of the arm” value in data set [3] (person with muscle pain, 100 µg intranasal 3 to 1 times daily, in the course of therapy) was “ohne Schmerzen bewegt; also recorded: weniger”. The Blutdruck in data set [3] (person with muscle pain, 100 µg intranasal, during therapy, baseline 90/60) is 110/65. Besides, the “Dauerschmerz in Ruhehaltung” value in data set [3] (person, upper arm pain, 100 µg intranasal) is reported as “verschwunden”.

On to `CC(C)C[C@H](NC(=O)[C@@H](Cc1ccc2ccccc2c1)NC(=O)[C@H](Cc1ccc(O)cc1)NC(=O)[C@H](CO)NC(=O)[C@H](Cc1c[nH]c2ccccc12)NC(=O)[C@H](Cc1cnc[nH]1)NC(=O)[C@@H]1CCC(=O)N1)C(=O)N[C@@H](CCCNC(=N)N)C(=O)N1CCC[C@H]1C(=O)NCC(N)=O` [[D-3-(2-Naphthyl)-Ala^6] Gonadoliberin], for which the “Wirkung relative to Gonadoliberin (mal stärker)” value in data set [4] is recorded as “noch höhere Aktivitäten”.

Take `Cc1cc(C)c(C[C@@H](NC(=O)[C@H](Cc2ccc(O)cc2)NC(=O)[C@H](CO)NC(=O)[C@H](Cc2c[nH]c3ccccc23)NC(=O)[C@H](Cc2cnc[nH]2)NC(=O)[C@@H]2CCC(=O)N2)C(=O)N[C@@H](CC(C)C)C(=O)N[C@@H](CCCNC(=N)N)C(=O)N2CCC[C@H]2C(=O)NCC(N)=O)c(C)c1` [[D-3-(2.4.6.Trimethylphenyl)-Ala^6]-Gonadoliberin]: the “Wirkung relative to Gonadoliberin (mal stärker)” value in data set [4] is on record as “noch höhere Aktivitäten”.

As to “[D-Ser(Bu^t) ^6] Gonadoliberin-(1-9)-nonapeptid-ethylamid [Buserelin]”, the Blutglucosewerte result in the data set on Plasma-Glucose is recorded as “signifikant erhöht”. Further, the “Stimulierung des PTH” value in the data set with Parathormon (dose 5 ng/kg) is on record as “stimulieren”. Moreover, the “Parathormon im Blutserum” value in the data set on Parathormon (Wistarratten, Ca2+-Infusion 30 mg/kg/h, 5 ng/kg i.v., after 30 Minuten, Verum-Gruppe vs Placebogruppe) is reported as “signifikant an”. Besides, the “Ca^2+-Spiegel im Blutserum” value with Parathormon (Wistarratten, Ca2+-Infusion 30 mg/kg/h, 5 ng/kg i.v., after 60 Minuten, Verum-Gruppe vs Placebogruppe) is on record as “deutlich erhöht”.
